Consider 12 compounds from patent US8791268B2, “Vanilloid receptor ligands, pharmaceutical compositions containing them, process for making them, and use thereof for treating pain and other conditions” (Gruenenthal GmbH, priority 2007, dated 2014).

As usually defined, the pKi is the negative decadic logarithm of the Ki, by convention in mol/L. A high value points to a low Ki. For orientation: pIC50 means −log10 of the IC50, conventionally taken in molar units. Read a high pIC50 as a small IC50. The inhibition is how much of the control response was suppressed.

pIC50, pKi: −log10 of the molar value.

Common to all, as to assay type: cell-based
For one assay, the target named is VR1/TRPV1 receptor (Homo sapiens (Human), UniProt Q8NER1). Kind of assay: Inhibition of human VR1/TRPV1 following pH-stimulus. Particulars: for IC50 (Human) following pH-stimulus / pIC50: ne = no effect, no reaction observed; for inhibition at 1 µM / inhibition at 5 µM / inhibition at 10 µM: read-out: inhibition (in percent) following pH-stimulus (Human).
VR1/TRPV1 receptor, sequence (Q8NER1 whole entry): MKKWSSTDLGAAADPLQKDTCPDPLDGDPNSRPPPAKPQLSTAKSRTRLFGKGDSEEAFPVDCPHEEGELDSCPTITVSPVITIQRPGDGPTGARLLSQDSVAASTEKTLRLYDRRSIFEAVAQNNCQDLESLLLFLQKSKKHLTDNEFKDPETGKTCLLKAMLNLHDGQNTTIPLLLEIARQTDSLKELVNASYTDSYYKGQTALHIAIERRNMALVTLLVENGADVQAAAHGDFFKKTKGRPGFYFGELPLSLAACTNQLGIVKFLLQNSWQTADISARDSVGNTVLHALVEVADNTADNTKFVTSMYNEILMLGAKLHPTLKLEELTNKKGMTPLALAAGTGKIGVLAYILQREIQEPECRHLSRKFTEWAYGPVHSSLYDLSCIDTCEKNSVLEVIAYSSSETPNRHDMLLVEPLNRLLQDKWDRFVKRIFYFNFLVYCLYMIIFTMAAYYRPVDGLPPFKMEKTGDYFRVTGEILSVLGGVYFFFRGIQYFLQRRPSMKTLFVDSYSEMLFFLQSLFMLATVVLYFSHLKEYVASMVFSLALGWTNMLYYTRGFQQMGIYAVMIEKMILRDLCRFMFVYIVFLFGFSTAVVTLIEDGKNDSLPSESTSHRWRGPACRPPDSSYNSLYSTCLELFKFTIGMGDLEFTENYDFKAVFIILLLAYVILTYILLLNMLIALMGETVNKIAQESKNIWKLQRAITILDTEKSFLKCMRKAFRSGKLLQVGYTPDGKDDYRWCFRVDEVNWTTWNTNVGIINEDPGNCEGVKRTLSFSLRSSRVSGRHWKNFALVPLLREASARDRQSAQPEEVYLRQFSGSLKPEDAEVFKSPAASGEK
In assay [1] the target is vanilloid receptor 1 (VR1/TRPV1) (Rattus norvegicus (Rat), UniProt O35433). Kind of assay: FLIPR Ca2+ influx assay on rat dorsal root ganglia cells, capsaicin stimulus (Pharmacological Method I). The source says:
I. Functional Investigation on the Vanilloid Receptor 1 (VR1/TRPV1 Receptor)
The agonistic or antagonistic action of the substances to be investigated on the vanilloid receptor 1 (VR1/TRPV1) of the species rat can be determined using the following assay. According to this assay, the Ca^2+ influx through the receptor channel is quantified with the aid of a Ca^2+-sensitive dye (Type Fluo-4, Molecular Probes Europe BV, Leiden Netherlands) in a fluorescent imaging plate reader (FLIPR, Molecular Devices, Sunnyvale, USA).
Complete medium: 50 mL of HAMS F12 Nutrient Mixture (Gibco Invitrogen GmbH, Karlsruhe, Germany) with
10% by volume of FCS (fetal calf serum, Gibco Invitrogen GmbH, Karlsruhe, Germany, heat-inactivated);
2 mM of L-glutamine (Sigma, Munich, Germany);
1% by weight of AA solution (antibiotics/antimycotics solution, PAA, Pasching, Austria)
and 25 ng/mL of Medium NGF (2.5 S, Gibco Invitrogen GmbH, Karlsruhe, Germany) Cell culture plate: Poly-D-lysine-coated, black 96-well plates with a clear bottom (96-well black/clear plate, BD Biosciences, Heidelberg, Germany) are additionally coated with laminin (Gibco Invitrogen GmbH, Karlsruhe, Germany) by diluting laminin to a concentration of 100 μg/mL with PBS (Ca—Mg-free PBS, Gibco Invitrogen GmbH, Karlsruhe, Germany). Aliquots having a concentration of 100 μg/mL of laminin are taken and stored at −20° C. The aliquots are diluted with PBS in the ratio 1:10 to 10 μg/mL of laminin and in each case 50 μL of the solution is pipeted into a well of the cell culture plate. The cell culture plates are incubated at 37° C. for at least two hours, the supernatant solution is aspirated and the wells are in each case washed twice with PBS. The coated cell culture plates are stored with supernatant PBS and this is removed only directly before the addition of the cells.
Preparation of the Cells:
The vertebral column is removed from decapitated rats and this is laid directly in a cold, i.e. ice bath-surrounded, HBSS buffer (Hank's buffered saline solution, Gibco Invitrogen GmbH, Karlsruhe, Germany) and 1% by volume of an AA solution (antibiotics/antimycotics solution, PAA, Pasching, Austria) is added. The vertebral column is cut in two, longitudinally, and the vertebral canal is removed together with fascias. Subsequently, the dorsal root ganglia (DRGs) are removed and in turn stored in cold HBSS buffer to which 1% by volume of an AA solution has been added. The DRGs completely freed from blood residues and spinal nerves are in each case transferred to 500 μL of cold collagenase Type 2 (PAA, Pasching, Austria) and incubated at 37° C. for 35 minutes. After the addition of 2.5% by volume of trypsin (PAA, Pasching, Austria), the preparation is incubated at 37° C. for a further 10 minutes. On completion of incubation, the enzyme solution is carefully pipeted off and 500 μL of complete medium are added to the DRGs in each case. The DRGs are in each case repeatedly suspended, drawn through No. 1, No. 12, and No. 16 needles by means of a syringe and transferred to 50 mL Falcon tubes and these are filled to 15 mL with complete medium. The contents of each Falcon tube are in each case filtered through a 70 μm Falcon filter insert and centrifuged at 1200 rpm and RT for 10 minutes. The resulting pellet is in each case taken up in 250 μL of complete medium and the cell count is determined.
The number of cells in the suspension is adjusted to 3×10^5 per mL and in each case 150 μL of this suspension are added to a well of the cell culture plates coated as described above. The plates are allowed to stand at 37° C., 5% by volume of CO2 and 95% relative humidity for two to three days in an incubator. […]

The target in the next assay is vanilloid receptor (VR1) (Homo sapiens (Human), UniProt Q8NER1). Kind of assay: FLIPR Ca2+ influx assay on CHO-K1 cells transfected with the human VR1 gene, capsaicin stimulus (Pharmacological Method II). On the procedure:
Furthermore, preference may be given to compounds of the invention of the general formulas I, Ia, Ib and Ic, which in the FLIPR assay using CHO—K1 cells, which have been transfected with the human VR1 gene in a concentration below 2000 nM, preferably below 1000 nM, more preferably below 300 nM, even more preferably below 100 nM, still more preferably below 75 nM, very preferably below 50 nM and most preferably below 10 nM, cause a 50 percent displacement of capsaicin present in a concentration of 100 nM. In the FLIPR assay, the Ca^2+ influx is quantified with the aid of a Ca^2+-sensitive dye (type Fluo-4, Molecular Probes Europe BV, Leiden, Netherlands) in a fluorescent imaging plate reader (FLIPR, Molecular Devices, Sunnyvale, USA), as described below.
II. Functional Investigations on the Vanilloid Receptor (VR1)
The agonistic or antagonistic action of the substances to be examined on the vanilloid receptor (VR1) can alternatively be determined by the following assay. According to this assay the Ca^2+ influx through the canal is quantified with the aid of a Ca^2+-sensitive dye (type Fluo-4, Molecular Probes, Europe BV, Leiden, Netherlands) in a fluorescent imaging plate reader (FLIPR, Molecular Devices, Sunnyvale, USA).
Chinese hamster ovary cells (CHO—K1 cells, European Collection of Cell Cultures (ECACC) UK) are stably transfected with the VR1 gene. For carrying out functional investigations, these cells are plated on poly-D-lysine-coated, black 96-well plates with a clear bottom (BD Biosciences, Heidelberg, Germany) in a density of 25,000 cells/well. The cells are incubated overnight at 37° C. and 5% CO2 in a culture medium (Nutrient Mixture ‘am’s F12, 10% by volume of FCS (fetal calf serum), 18 μg/mL of L-proline). On the following day the cells are incubated with Fluo-4 (Fluo-4 2 μM, Pluronic F127 0.01 by volume, Molecular Probes in HBSS (Hank's buffered saline solution), Gibco Invitrogen GmbH, Karlsruhe, Germany) for 30 minutes at 37° C. The plates are then washed 3 times with HBSS buffer and, after another incubation over a period of 15 minutes at RT, are used in the FLIPR for Ca^2+ measurement. The Ca^2+-dependent fluorescence is measured prior to and following the addition of the substances being examined (wavelength λex=488 nm, λem=540 nm). Quantification is carried out by measuring the highest fluorescence intensity (PC, fluorescence counts) over time.
The FLIPR protocol consists of two substance additions. First of all, the substances to be tested (10 μM) are pipeted onto the cells and the Ca^2+ influx is compared with the control (capsaicin 10 μM) (percentage activation based on the Ca^2+ signal following addition of 10 μM of capsaicin). Following incubation over a period of 5 minutes 100 nM of capsaicin are applied and the influx of Ca^2+ is likewise determined.
Desensitizing agonists and antagonists lead to a suppression of the Ca^2+ influx. The percentage inhibition compared with the maximum inhibition achieved with 10 μM of capsaicin is calculated.
Based on the percentage displacement effected by different concentrations of the compounds of the general formula Ito be tested, IC50 inhibition concentrations that cause 50 percent displacement of capsaicin are calculated. Conversion using the Cheng Prusoff equation gave Ki values for the test substances (Cheng, Prusoff; Bioch. Pharmacol. 22, 3099-3108, 1973).
The affinity of the compounds of the invention for the vanilloid receptor 1 (VR1/TRPV1-Receptor) was detected as described above (Pharmacological Methods I and II respectively).

vanilloid receptor (VR1), sequence (Q8NER1 whole entry): as above
vanilloid receptor 1 (VR1/TRPV1), sequence (O35433 whole entry): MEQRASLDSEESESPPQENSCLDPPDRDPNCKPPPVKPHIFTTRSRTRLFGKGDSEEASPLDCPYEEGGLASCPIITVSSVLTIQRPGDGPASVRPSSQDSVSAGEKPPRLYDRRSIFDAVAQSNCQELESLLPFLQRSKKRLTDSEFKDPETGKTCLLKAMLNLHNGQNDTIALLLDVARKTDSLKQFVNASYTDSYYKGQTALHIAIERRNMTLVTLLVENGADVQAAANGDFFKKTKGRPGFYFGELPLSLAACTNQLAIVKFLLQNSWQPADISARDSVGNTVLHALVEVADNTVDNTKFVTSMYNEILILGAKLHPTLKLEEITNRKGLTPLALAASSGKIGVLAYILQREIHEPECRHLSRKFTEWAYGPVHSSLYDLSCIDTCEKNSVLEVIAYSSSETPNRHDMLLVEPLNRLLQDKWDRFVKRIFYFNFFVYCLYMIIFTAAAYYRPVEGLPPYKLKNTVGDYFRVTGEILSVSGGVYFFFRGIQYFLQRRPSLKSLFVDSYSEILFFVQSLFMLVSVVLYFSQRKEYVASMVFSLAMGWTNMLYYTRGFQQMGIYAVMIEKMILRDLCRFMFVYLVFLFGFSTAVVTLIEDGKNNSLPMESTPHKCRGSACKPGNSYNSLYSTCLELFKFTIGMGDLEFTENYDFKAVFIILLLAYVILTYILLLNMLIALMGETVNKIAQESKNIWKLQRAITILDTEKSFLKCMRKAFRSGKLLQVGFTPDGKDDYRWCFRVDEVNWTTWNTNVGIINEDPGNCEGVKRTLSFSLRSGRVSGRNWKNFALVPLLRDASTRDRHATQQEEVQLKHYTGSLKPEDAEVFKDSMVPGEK

Regarding `CC1CCN(c2nc(C(F)(F)F)ccc2CNC(=O)Cc2cc(Br)cc(Br)c2)CC1` [Example 2, 2-(3,5-Dibromophenyl)-N-((2-(4-methylpiperidin-1-yl)-6-(trifluoromethyl)pyridin-3-yl)methyl)acetamide], the “IC50 (Human) following pH-stimulus” value against VR1/TRPV1 receptor is given as “ne”. For the same compound, the pKi is 7.22 in assay [1] and 7.39 on vanilloid receptor (VR1).
On VR1/TRPV1 receptor, `COc1cc(CC(=O)NCc2ccc(C(F)(F)F)nc2N2CCC(C)CC2)cc(Br)c1N` [Example 3, 2-(4-Amino-3-bromo-5-methoxyphenyl)-N-(4-methyl-6′-trifluoromethyl-3,4,5,6-tetrahydro-2H-[1,2′]bipyridinyl-3′-ylmethyl)acetamide] gave a pIC50 of 6.60. The negative logarithm of the Ki (pKi) in assay [1] is 7.78; on vanilloid receptor (VR1), 8.36.
In the case of `CC1CCN(c2nc(C(F)(F)F)ccc2CNC(=O)C(C)c2cc(Br)c(N)c(Br)c2)CC1` (stereo not shown) [Example 20, 2-(4-Amino-3,5-dibromophenyl)-N-(4-methyl-6′-trifluoromethyl-3,4,5,6-tetra-hydro-2H-[1,2′]bipyridinyl-3′-ylmethyl)propionamide], at VR1/TRPV1 receptor, the inhibition at 1 µM came to 0%, the inhibition at 5 µM came out at 10% and the inhibition at 10 µM was 27%. Further, the negative-log Ki (pKi) on vanilloid receptor (VR1) was 9.05.
Take `CC1CCN(c2nc(C(F)(F)F)ccc2CNC(=O)C(C)c2cc(F)c(N)c(F)c2)CC1` (stereo not shown) [Example 26, 2-(4-Amino-3,5-difluorophenyl)-N-((2-(4-methylpiperidin-1-yl)-6-(trifluoromethyl)pyridin-3-yl)methyl)propanamide]: the “IC50 (Human) following pH-stimulus” value at VR1/TRPV1 receptor is “ne”. Besides, the pKi is 8.47 in assay [1] and 8.02 at vanilloid receptor (VR1).
Taken in the same sequence, the figures for `CC1CCN(c2nc(C(F)(F)F)ccc2CNC(=O)Cc2c(F)cccc2F)CC1` [Example 6, 2-(2,6-Difluorophenyl)-N-(4-methyl-6′-trifluoromethyl-3,4,5,6-tetrahydro-2H-[1,2′]bipyridinyl-3′-ylmethyl)acetamide] were “ne”, 6.93 and 7.42.
With `COc1cc(CC(=O)NCc2ccc(C(F)(F)F)nc2N2CCC(C)CC2)cc(Br)c1O` [Example 21, 2-(3-Bromo-4-hydroxy-5-methoxyphenyl)-N-(4-methyl-6′-trifluoromethyl-3,4,5,6-tetrahydro-2H-[1,2′]bipyridinyl-3′-ylmethyl)acetamide], at VR1/TRPV1 receptor, the inhibition at 5 µM came to 4% and the inhibition at 10 µM was determined as 38%. On vanilloid receptor (VR1), the pKi was 10.00.
Take `CC1CCN(c2nc(C(F)(F)F)ccc2CNC(=O)Cc2cc(Br)c(O)c(Br)c2)CC1` [Example 23, 2-(3,5-Dibromo-4-hydroxyphenyl)-N-(4-methyl-6′-trifluoromethyl-3,4,5,6-tetra-hydro-2H-[1,2′]bipyridinyl-3′-ylmethyl)acetamide]: at VR1/TRPV1 receptor, the inhibition at 5 µM was 8% and the inhibition at 10 µM was 35%. The pKi on vanilloid receptor (VR1) was 9.52.
In the case of `CC1CCN(c2nc(C(F)(F)F)ccc2CNC(=O)C(C)c2cc(F)cc(F)c2)CC1` (stereo not shown) [Example 10, 2-(3,5-Difluorophenyl)-N-(4-methyl-6′-trifluoromethyl-3,4,5,6-tetrahydro-2H-[1,2′]bipyridinyl-3′-ylmethyl)propionamide], the “IC50 (Human) following pH-stimulus” value against VR1/TRPV1 receptor is recorded as “ne”. At vanilloid receptor (VR1), this compound showed a negative logarithm of the Ki (pKi) of 7.61.
Turning to `CC1CCN(c2nc(C(F)(F)F)ccc2CNC(=O)C(C)c2cc(Br)c(O)c(Br)c2)CC1` (stereo not shown) [Example 19, 2-(3,5-Dibromo-4-hydroxyphenyl)-N-(4-methyl-6′-trifluoromethyl-3,4,5,6-tetra-hydro-2H-[1,2′]bipyridinyl-3′-ylmethyl)propionamide], at VR1/TRPV1 receptor, the inhibition at 1 µM came to 0%, the inhibition at 5 µM is 20% and the inhibition at 10 µM came out at 31%. The same compound gave a negative logarithm of the Ki (pKi) on vanilloid receptor (VR1) of 8.96.
Turning to `CC(=O)Nc1ccc(C(C)C(=O)NCc2ccc(C(F)(F)F)nc2N2CCC(C)CC2)cc1F` (stereo not shown) [Example 18, 2-(4-Acetamido-3-fluorophenyl)-N-((2-(4-methylpiperidin-1-yl)-6-(trifluoromethyl)pyridin-3-yl)methyl)propanamide], the “IC50 (Human) following pH-stimulus” value against VR1/TRPV1 receptor is recorded as “ne”. The compound further showed a pKi at vanilloid receptor (VR1) of 7.60.
With `CC1CCN(c2nc(C(F)(F)F)ccc2CNC(=O)Cc2cc(Br)c(N)c(Br)c2)CC1` [Example 22, 2-(4-Amino-3,5-dibromophenyl)-N-(4-methyl-6′-trifluoromethyl-3,4,5,6-tetra-hydro-2H-[1,2′]bipyridinyl-3′-ylmethyl)acetamide], the pIC50 on VR1/TRPV1 receptor was 6.80. Moreover, the negative-log Ki (pKi) on vanilloid receptor (VR1) is 9.15.
On to `C=CC(=O)Nc1c(F)cc(C(C)C(=O)NCc2ccc(C(F)(F)F)nc2N2CCC(C)CC2)cc1I` (stereo not shown) [Example 34, N-(2-Fluoro-6-iodo-4-(1-((2-(4-methylpiperidin-1-yl)-6-(trifluoromethyl)pyridin-3-yl)methylamino)-1-oxopropan-2-yl)phenyl)acrylamide], for which the “IC50 (Human) following pH-stimulus” value on VR1/TRPV1 receptor was “ne”. For the same compound, on vanilloid receptor (VR1), the pKi was 8.32.
